Experimental data reported in patent US8648205B2, “Metal complexes of N-heterocyclic carbenes” (The University of Akron, priority 2003, dated 2014).
Values joined by “and” are separate entries in the source; they are usually repeats but may differ in a detail not shown here. Equal entries are not always repeated. “Also recorded” adds a separate entry of the source. Where two headings read alike, the source gives them in different places.

Legend:
E. coli (ATCC 8739) = assay: MIC test in LB broth comparing AgNO3 and complex 106; type: cell-based; design: key: +=growth; −=no growth
[1] = test system: P. aeruginosa (ATCC 9027); assay: as above; type: cell-based; design: key: +=growth; −=no growth
S. aureus (ATCC 6538) = assay: as above; type: cell-based; design: key: +=growth; −=no growth
[2] = test system: E. coli, P. aeruginosa, S. aureus; assay: MIC test in aqueous LB broth, summary of Table 5; type: cell-based
solubility = settings: 37: bromide salt; 20a, 20b: bromide salts
[3] = stability (air, light, water, chloride, storage)
Escherichia coli = type: cell-based
Experimental: (§1) In this test, a filter paper disc of 6 mm diameter was soaked with 20 μL of a silver compound of known concentration, and placed over a lawn of an organism in the agar plate. The diameter of the area in which growth of the organism is inhibited by the test solution was measured after an over night incubation as a measure of the relative antimicrobial activity of the silver compounds. The test organisms were Escherichia coli, Staphylococcus aureus, and Pseudomonas aeruginosa.

Pseudomonas aeruginosa = type: cell-based
Experimental: as §1

Staphylococcus aureus = type: cell-based
Experimental: as §1

[4] = test system: Escherichia coli, Staphylococcus aureus, and Pseudomonas aeruginosa; assay: agar plates overlay method, summary of Table 2; type: cell-based
Experimental: The usefulness of the compounds represented by Formulas 103 and 55 as antimicrobial agents was evaluated. In this test, a filter paper disc of 6 mm diameter was soaked with 20 μL of a silver compound of known concentration, and placed over a lawn of an organism in the agar plate. The diameter of the area in which growth of the organism is inhibited by the test solution was measured after an over night incubation as a measure of the relative antimicrobial activity of the silver compounds. The test organisms were Escherichia coli, Staphylococcus aureus, and Pseudomonas aeruginosa.

[5] = test system: Escherichia coli, Staphylococcus aureus, and Pseudomonas aeruginosa; settings: supernatants, less silver chloride
rats = assay: Toxicity studies with rats, clearance by mass spectroscopy of the urine; type: in vivo
[6] = test system: S. aureus, P. aeruginosa, and E. coli; assay: filter disk test and standard MIC technique; type: cell-based
[7] = LD50 in rats, preliminary studies; settings: rat, in vivo, imidazolium cation portion
From the text: The imidazolium salt 1,3,9-trimethyl-7-(2,3-dihyroxypropyl)xanthinium iodide represented by Formula 201 is obtained by reacting 7-(2,3-dihydroxypropyl)theophylline (Formula 200) with methyl iodide in dimethylformamide. The imidazolium salt represented by Formula 201 reacts with silver acetate in methanol to yield the N-heterocyclic carbene silver(I) acetate complex (Formula 202), which is a white solid in 34% yield (structure confirmed by X-ray crystallography). The compound represented by Formula 202 is water soluble (Ksp=82 mg/mL) and is stable for at least 7 days in water by NMR. As the compound represented by Formula 202 decomposes to release Ag^+ thereby regenerating the cationic portion of the compound of Formula 201. The imidazolium cation portion of the compound represented by Formula 201 has an LD50 in rats of >2.0 g/kg in preliminary studies.

[8] = test system: bladder carcinoma-derived T24 epithelial cell line (ATCC HTB-4); assay: In vitro toxicity, propidium iodide flow cytometry; type: cell-based
Experimental: A prerequisite for a topical biocide is that it confers acceptable toxicity to the tissue(s) of interest. In vitro toxicity of the compound represented by Formula 202 has been studied using the bladder carcinoma-derived T24 epithelial cell line (ATCC HTB-4). T24 cells were grown in RPMI 1640 medium available from Life Technologies (Carlsbad, Calif.) supplemented with 10% fetal bovine serum available from Sigma (St. Louis, Mo.), seeded into 24-well plates, and grown to confluence over 48 hours. Cells were washed with sterile phosphate buffered saline (PBS) and fresh warmed medium was added, either alone or containing the compound represented by Formula 202 (added to the medium at the start of the experiment to minimize premature liberation of Ag^+ from the compound represented by Formula 202) at concentrations between 5 and 50 μg/mL. After incubation for 1 to 2 hours, cells were released by treatment with 0.05% trypsin-0.02% EDTA, suspended in sorting buffer, stained with propidium iodide, and subjected to flow cytometry on a FACS Calibur instrument available from Becton Dickinson (Piscataway, N.J.).

physchem = settings: water
panel of E. coli = assay: MIC for a panel of E. coli (UTI strains), 96-well plate; settings: Escherichia coli, 16 h
[9] = Day 1, 1DF: AgNO3 1731.18, 106 1675.74 μg/mL
[10] = Day 1, 2DF: AgNO3 865.59, 106 837.87 μg/mL
[11] = Day 1, 3DF: AgNO3 432.79, 106 418.94 μg/mL
[12] = Day 1, 4DF: AgNO3 216.40, 106 209.47 μg/mL
[13] = Day 1, undiluted: AgNO3 0.50 wt/V % (3462.35 μg/mL), 106 1.38 wt/V % (3341.48 μg/mL)
[14] = Day 2, 1DF: AgNO3 1731.18, 106 1675.74 μg/mL
[15] = Day 2, 2DF: AgNO3 865.59, 106 837.87 μg/mL
[16] = Day 2, 3DF: AgNO3 432.79, 106 418.94 μg/mL
[17] = Day 2, 4DF: AgNO3 216.40, 106 209.47 μg/mL
[18] = Day 2, undiluted: AgNO3 0.50 wt/V % (3462.35 μg/mL), 106 1.38 wt/V % (3341.48 μg/mL)
[19] = 0.5% solution, 20 μL on 6 mm filter paper disc, over night

OC1(O)CN2C=CN3Cc4cccc(n4)CN4C=CN(C1)[CH]4[Ag+][CH]1N4C=CN1CC(O)(O)CN1C=CN(Cc5cccc(n5)C4)[CH]1[Ag][CH]32 [Complex 106]
growth / no growth (E. coli (ATCC 8739); [9]): −
growth / no growth (E. coli (ATCC 8739); [10]): −
growth / no growth (E. coli (ATCC 8739); [11]): −
growth / no growth (E. coli (ATCC 8739); [12]): −
growth / no growth (E. coli (ATCC 8739); [13]): −
growth / no growth (E. coli (ATCC 8739); [14]): −
growth / no growth (E. coli (ATCC 8739); [15]): −
growth / no growth (E. coli (ATCC 8739); [16]): +
growth / no growth (E. coli (ATCC 8739); [17]): +
growth / no growth (E. coli (ATCC 8739); [18]): −
growth / no growth [1, 9]: −
growth / no growth [1, 10]: −
growth / no growth [1, 11]: −
growth / no growth [1, 12]: −
growth / no growth [1, 13]: −
growth / no growth [1, 14]: −
growth / no growth [1, 15]: −
growth / no growth [1, 16]: +
growth / no growth [1, 17]: +
growth / no growth [1, 18]: −
growth / no growth (S. aureus (ATCC 6538); [9]): −
growth / no growth (S. aureus (ATCC 6538); [10]): −
growth / no growth (S. aureus (ATCC 6538); [11]): −
growth / no growth (S. aureus (ATCC 6538); [12]): −
growth / no growth (S. aureus (ATCC 6538); [13]): −
growth / no growth (S. aureus (ATCC 6538); [14]): −
growth / no growth (S. aureus (ATCC 6538); [15]): −
growth / no growth (S. aureus (ATCC 6538); [16]): +
growth / no growth (S. aureus (ATCC 6538); [17]): +
growth / no growth (S. aureus (ATCC 6538); [18]): −
antimicrobial activity of the aqueous form, fold less effective than 0.5% AgNO3 ([2]; about the same amount of silver): 2 fold
MIC ([2]; after 48 hrs of incubation, read-out: MIC concentration): 838 µg/mL
solubility in water / aqueous media (solubility): sparingly soluble in water
stability in air and light [3]: air and light stable
stability in water ([3]; 37: bromide salt, 20a, 20b: bromide salts): quick decomposition

OCCN1C=CN(Cc2cccc(CN3C=CN(CCO)C3)n2)C1 [Compound 101]
Diameter of Inhibited Area (Escherichia coli; [19]): 6 mm
Diameter of Inhibited Area (Pseudomonas aeruginosa; [19]): 6 mm
Diameter of Inhibited Area (Staphylococcus aureus; [19]): 6 mm
antimicrobial properties (Table 2 summary) [4]: no antimicrobial activity

OCCCN1C=CN(Cc2cccc(CN3C=CN(CCCO)C3)n2)C1 [Compound 102]
Diameter of Inhibited Area (Escherichia coli; [19]): 6 mm
Diameter of Inhibited Area (Pseudomonas aeruginosa; [19]): 6 mm
Diameter of Inhibited Area (Staphylococcus aureus; [19]): 6 mm
antimicrobial properties (Table 2 summary) [4]: no antimicrobial activity

F[P-](F)(F)(F)(F)F.F[P-](F)(F)(F)(F)F.OCCn1cc[n+]2[c]1[Ag-][c]1n(CCO)cc[n+]1Cc1cccc(n1)C[n+]1ccn(CCO)[c]1[Ag-][c]1n(CCO)cc[n+]1Cc1cccc(n1)C2 [Compound 105]
Diameter of Inhibited Area (Escherichia coli): 10 mm and 11.58 mm
Diameter of Inhibited Area (Pseudomonas aeruginosa): 12 mm and 10.25 mm
Diameter of Inhibited Area (Staphylococcus aureus): 9 mm and 10.67 mm
antimicrobial properties (Table 2 summary) [4]: comparable to silver nitrate
antimicrobial activity compared with silver nitrate (Table 3 summary) [5]: better antimicrobial activity than silver nitrate
solubility in water / aqueous media (solubility): is not; also recorded: soluble in aqueous media

OCC[n+]1ccn(Cc2cccc(Cn3cc[n+](CCO)c3)n2)c1.[Br-].[Br-] [Formula 19a]
toxicity (rats): low toxicity
clearance through the kidneys (rats; mass spectroscopy of the urine): clears within two days

CC(=O)[O][Ag][CH]1N(C)c2c(n(C)c(=O)n(C)c2=O)N1C (stereo not shown) [Formula 100]
antimicrobial activity [6]: effective antimicrobial activity
stability in air and light [3]: air stable

CN1CN(CC(O)CO)c2c1n(C)c(=O)n(C)c2=O (stereo not shown) [Formula 201]
LD50 [7]: > 2000 mg/kg

CC(=O)[O][Ag][CH]1N(C)c2c(c(=O)n(C)c(=O)n2C)N1CC(O)CO (stereo not shown) [Formula 202]
loss of viability ([8]; 1 h of treatment at 5 μg/mL): ~5%
loss of viability ([8]; 2 hours of treatment at 5 μg/mL): approximately 11%
solubility (physchem): 82 mg/mL
shelf life ([3]; room temperature): several months
stable in solid form ([3]; solid form): a couple months
stable in water by NMR ([3]; water): at least 7 days
MIC (panel of E. coli): 2 to 4 µg/mL
